In US4755510A, “Novel anticonvulsive tetrahydro-1,2,4-oxadiazine-5-thion derivatives and use” (Richter Gedeon Vegyeszeti Gyar R.T., priority 1984, dated 1988):
Where two headings read alike, the source gives them in different places.

How the values were obtained:
Male CFLP (LATI) mice [1] = assay: Maximal electroshock (MES), protection from tonic extensoric spasm of the lower limbs; assay type: in vivo; conditions: Mus musculus, po; for ED50: read-out: Anticonvulsive activity MES ED50; for inhibition at 30 mg/kg: read-out: MES inhibition (%)
Protocol: (§1) The compound to be tested was suspended in 2 percent aqueous Tween 80 (polyoxyethylene sorbitane monolaurate) solution and it was orally administered to the animals through a bougie in a dose of 30 mg/kg when the anticonvulsive activity was tested, while in a dose of 120 mg/kg when the neurotoxic activity was examined. The effect triggered was measured after 1 hour of the administration. Male CFLP (LATI) mice having a weight of 18 to 22 g were used in the tests.
The animals were shocked with a corneal electrode (20 mA, 0.2 sec.) (H. Schachs Elektronik, Marchs, Augstatten, Germany, "schockreizgerat" typ. 207) according to the method of E. A. Swinyard et al. (J. Pharmacol. Exp. Ther. 106, 318 (1952)]. 100% of the control animals responded to the stimulus by the tonic extensoric spasm of the lower limbs. The lack of these occurences was attributed to the protection obtained by the treatment.
MES: maximal electroshock

Male CFLP (LATI) mice [2] = assay: Spasm stimulated by Pentetrazole (PTT); assay type: in vivo; conditions: po; for ED50: Mus musculus, read-out: Anticonvulsive activity PTT TE (tonic extensoric spasm) ED50
Protocol: as §1
According to the method of G. M. Everett and R. K. Richard [J. Pharmacol. Exp. Ther., 81, 402, (1944)] the test animals were treated with 125 mg/kg of Pentetrazole (pentamethylene tetrazole) after 1 hour of the administration of the compound to be tested. The lack of the clonic spasm (KI) and the tonic extensoric spasm of the lower limbs (TE) was attributed to the protection obtained as a result of the treatment.
PTT: inhibition of the spasm stimulated by pentetrazole
TE: tonic extensoric spasm

Acute toxicity (LD50) = assay type: in vivo; conditions: mouse, in vivo, po; one dose, observation through 14 days; probit analysis; read-out: Acute tox. LD50
Protocol: as §1
(§2) The toxicity of the compounds was examined after the administration of 1000 mg/kg of the test compound in one dose by an observation through 14 days. The LD50 value (50 percentile lethal dose) was calculated by probite analysis on the basis of the percentile ratio of the animals died within the 14 days.

[3] = Neurotoxicity (muscle uncoordination), rotating bar (FR); set-up: species or system mice (male CFLP (LATI)); conditions: mouse, in vivo, po
Protocol: as §1
The change of the coordinated muscle motion was examined on a rotating bar according to the method of C. J. Carr [J. Pharmacol. Exp. Ther., 121, 354 (1957)] (diameter: 20 mm, number of revolutions: 12/minute). The trained control animals could stay on the bar for 120 seconds. After 1 hour of the administration of the test compound, it was examined which percent of the animals fell down from the rotating bar within 120 seconds.

Male CFLP (LATI) mice [4] = assay: Acute toxicity (LD50); assay type: in vivo; conditions: one dose, observation through 14 days; probit analysis
Protocol: as §1, §2

Male CFLP (LATI) mice [5] = assay: Spasm stimulated by strychnine (Str); assay type: in vivo; conditions: Mus musculus, po, 1 h, read-out: Anticonvulsive activity Str (spasm stimulated by strychnine) ED50
Protocol: as §1
According to the method of T. L. Kerley et al. [J. Pharmacol. Exp. Ther. 132, 360 (1961)] the test animals were i. p. treated with 2.5 mg/kg of strychnine after 1 hour of the administration of the active ingredient to be tested.
Str: inhibition of the spasm stimulated by strychnine

Row | SMILES | ED50 (Male CFLP (LATI) mice [1]; 1 h) [mg/kg] | ED50 (Male CFLP (LATI) mice [2]; 1 h) [mg/kg] | LD50 at 336 h (Acute toxicity (LD50)) [mg/kg] | Anticonvulsive activity PTT K1 (clonic spasm) ED50 (Male CFLP (LATI) mice [2]; 1 h) [mg/kg] | further results
1 | CC(=O)N1O[C@H](C)C(=S)N[C@@H]1c1ccccc1 (relative stereo) [A] | 11.9 | 6.1 | 1000 |  | 
2 | O=C1NC(=O)C(c2ccccc2)(c2ccccc2)N1 [Compound K1, Diphenyl hydantoin, reference compound] |  |  |  |  | ED50 (Male CFLP (LATI) mice [1]; 1 hour after administration, corneal electrode 20 mA, 0.2 sec): 8.3 mg/kg; ED50 (Male CFLP (LATI) mice [2]; Pentetrazole 125 mg/kg 1 hour after administration, tonic extensoric spasm): 9.9 mg/kg; TD50 at 1 h [3]: 47.7 mg/kg; Acute tox. LD50 (Male CFLP (LATI) mice [4]): 278 mg/kg
3 | CC(=O)N1O[C@H](C)C(=S)N[C@@H]1c1ccc(N(C)C)cc1 (relative stereo) [D] | 30 | 9.9 | 1000 | 0 | 
4 | CC(=O)N1O[C@H](C)C(=S)N[C@@H]1c1ccccc1 [B] | 16.1 | 12.6 | 1000 |  | 
5 | CC[C@H]1ON(C(C)=O)[C@@H](c2ccccc2)NC1=S (relative stereo) [F] |  | 15.4 | 1000 | 0 | inhibition at 30 mg/kg (Male CFLP (LATI) mice [1]; 1 h): 40%
6 | CC(=O)N1OCC(=S)NC1c1ccccc1 (centres unmarked) [E, 2-Acetyl-3-phenyl-tetrahydro-1,2,4-oxadiazine-5-thion] |  | 16.6 | 1000 | 0 | inhibition at 30 mg/kg (Male CFLP (LATI) mice [1]; 1 h): 10%
7 | CC(=O)N1O[C@H](C)C(=S)N[C@@H]1c1ccccc1C (relative stereo) [C, 2-Acetyl-3-(2-methylphenyl)-6-methyl-tetrahydro-1,2,4-oxadiazine-5-thion] | 10 | 4.3 | 1000 |  | ED50 (Male CFLP (LATI) mice [5]): 25.6 mg/kg
8 | CC(=O)N1OCC(=O)NC1c1ccccc1 (centres unmarked) [Compound K2, 2-Acetyl-3-phenyl-tetrahydro-1,2,4-oxadiazine-5-one, reference compound] | 22.7 | 13.4 |  |  | TD50 at 1 h ([3]; rotating bar 12/minute, 120 seconds, 1 hour after administration, read-out: Neurotox. FR (rotating bar) ED50): 130 mg/kg
